According to patent publication US20220396818A1, “POLYNUCLEOTIDE SYNTHESIS METHOD, KIT AND SYSTEM” (Oxford Nanopore Technologies PLC, priority 2019, published 2022):

System: 3′-O-azidomethyl group on DNA model
Test: Deprotection of 3′-O-azidomethyl group by TCEP, monitored by extension reaction
Details: 0.2 μM DNA model
Description: Deprotection step (FIG. 26a) was studied on DNA model bearing 3′-O-azidomethyl group that is introduced to DNA by incorporation of 3′-O-azidomethyl-dNTPs by Therminator IX DNA polymerase. Deprotection was carried out by tris(carboxyethyl)phosphine (TCEP) and monitored by extension reaction when mixture of all natural dNTPs is added to the solution of the purified deprotected DNA.
• 1. 2 μl of 10× Thermopol® buffer (20 mM Tris-HCl, 10 mM (NH4)2SO4, 10 mM KCl, 2 mM MgSO4, 0.1% Triton® X-100, pH 8.8, New England BioLabs) was mixed with 12.25 μl of sterile deionized water (ELGA VEOLIA) in 1.5 ml Eppendorf tube. • 2. 1 μl of 10 μM primer (10 pmol, 1 equiv) (SEQ ID NO: 39, FIG. 26i) and 1.5 μl of either 10 μM template-A/G/T/C (15 pmol, 1.5 equiv) (SEQ ID NOS: 40 to 43, FIG. 26i) were added to the reaction mixture. • 3. 3′-O-modified-dTTP/dCTP/dATP/dGTP (2 μl of 100 μM) and MnCl2 (1 μl of 40 mM) were added. • 4. 1.5 μl of Therminator IX DNA polymerase (15 U, New England BioLabs) was then added. • 5. The reaction was incubated for 5 minutes at 37° C. • 6. 4 μL of the sample was taken out and mixed with 0.5 ul of 5 mM dNTP mix and allowed to react for 10 minutes for control reaction. • 7. 40 μL of the 500 mM TCEP in 1M TRIS buffer pH 7.4 was added to the reaction mixture and allowed to react for 10 minutes at 37° C. • 8. […]

Compound: O=C(O)CCP(CCC(=O)O)CCC(=O)O [TCEP, tris(carboxyethyl)phosphine]
- cleavage of 3′-O-azidomethyl group with high efficiency (50 mM TCEP): not sufficient
- efficiency of cleavage of 3′-O-azidomethyl group (300 mM TCEP): 95%
